Data on 15 compounds can be found in patent publication US20210332139A1, “MODULATION OF LEUKOCYTE ACTIVITY IN TREATMENT OF NEUROINFLAMMATORY DEGENERATIVE DISEASE” (Leuvas Therapeutics, priority 2013, published 2021).

In one assay the test system is human primary PMNs. Briefly: Static adhesion of human primary PMNs to ICAM-1 with signaling inhibitors. It is filed as cell-based. Particulars: for Adherent hPMNs to ICAM-1, n.t. (resting), Mean / Adherent hPMNs to ICAM-1, fMLP, Mean / Adherent hPMNs to ICAM-1, Aβ oligo, Mean: 30 min; for Adherent hPMNs to ICAM-1, fMLP, Mean: then 50 nM fMLP 1 min; for Adherent hPMNs to ICAM-1, Aβ oligo, Mean: then 10 μM Aβ 1 min; for Blockade of Aβ-induced adhesion of human neutrophils: result in words. The method, then: As a model system, human primary PMNs were isolated form healthy donors stimulated to very rapid adhesion to purified human ICAM-1, ligand for the β2 integrins LFA-1 and Maci. fMLP (the classical chemoattractant) was the positive control. […] PMNs were treated for 30 min. with different concentrations of inhibitors followed by stimulation for 1 min with 50 nM fMLP or with 10 μM Aβ. The number of adherent cells was quantified by computer-assisted evaluation. Statistical analysis was SD.

The test system of a further assay is neutrophils. Briefly: Rapid adhesion of neutrophils, soluble versus fibrillary Aβ1-42. The class given is cell-based. The following applies: 30 μM, mean+/−SD. The source says: Although two-times less efficient than the soluble form, fibrillary Aβ triggered a significant increase of rapid neutrophil adhesion on both ICAM-1 and fibrinogen (Table 8; data are expressed as the mean+/−SD of bound cells in 0.2 mm^2 from three independent experiments made in duplicate).

Assay [1] concerns human neutrophils. As to the kind of experiment: Rapid human neutrophil adhesion to ICAM-1, inhibition by bocMLF and PTx. It is filed as cell-based. Here is the method:
It is known that one of the receptors for Aβ is the receptor for fMLP, formylpeptide chemotactic receptor (FPR). To evaluate the contribution of this GPCR receptor on Aβ-dependent neutrophil adhesion, we inhibited its function using boc-MLF, a formyl-peptide chemotactic receptor antagonist. Human neutrophils were incubated for 2 minutes with buffer (control) or with oligomeric Aβ. 0.1 μM fMLP was used as a positive control. Values are expressed as the mean counts of bound cells in 0.2 mm^2 from three independent experiments in duplicate. Error bars represent SD. […] To exclude the possibility that rapid adhesion triggering was a consequence of a generic plasma membrane alteration due to the lipophilic nature of Aβ, we evaluated rapid adhesion in lymphocytes, which are known to lack fMLP receptors.

Assay [2] concerns human neutrophils. As to the kind of experiment: Isoluminol chemiluminescence ROS assay, human neutrophils. Particulars: result in words. The class given is cell-based. Here is the method:
One of the mechanisms of neuronal damage by beta-amyloid in Alzheimer's disease is the generation of reactive oxygen species (ROS). We determined whether Aβ1-42 oligomers induce ROS production in neutrophils by using a chemiluminescence assay.
(§1) Isoluminol-based chemiluminescence assays were performed in HGCa in the presence of horseradish peroxidase (HRP) and isoluminol (both from Sigma-Aldrich) in a temperature-controlled Multilabel Count Victor X5 (Perkin Elmer). Assays were run in dark 96 well plates precoated with 250 μg/ml human fibrinogen in HGCa containing (final concentration): 100 μM isoluminol and 8 U/ml HRP. After addition of 1×10^5 human neutrophils or 7.5×10^5 mouse neutrophils, plates were left at 37° C. for 5-10 min and the reaction started by addition of the stimulus. Light emission was recorded every minute.
(§2) We used the chemotactic peptide fMLP as positive control. […] Data are mean+/−SD for three independent experiments.

In another assay the test system is mouse neutrophils. As to the kind of experiment: Isoluminol chemiluminescence ROS assay, mouse neutrophils. The class given is cell-based. Particulars: mean+/−SD. The method, then: as §1, §2
Data are mean+/−SD counts per second.

The subject of assay [3] is Bend.3 endothelial cell line. Briefly: Adhesion molecule expression on Bend.3 endothelial cells (immunofluorescence). The class given is cell-based, mouse. Particulars: Bend.3 cells, 25 U/ml TNFα, 18 h, positive control. Details: key: −: VCAM-1 and selectins were not expressed (indicated by -, Table 2); constitutively expressed at low levels on endothelial cells (indicated by +/−, some vessels were positive for ICAM-1, Table 2); an increase of ICAM-1 expression (indicated by +, Table 2). Here is the method:
We performed in vitro experiments to study the effect of soluble Aβ1-42 oligomers on the endothelial cell line Bend.3, derived from mouse cerebral cortex purchased by ATCC& Cell Biology Collection (CRL-2299TM).
Briefly, Bend.3 were cultured at a concentration of 20×10^3/ml on a glass coverslip in 24-well plates containing DMEM supplemented with 10% Fetal Calf Serum (FCS). Cells were stimulated with 10 μM Aβ 1-42, for 18 h in DMEM with 1% FCS. […] positive control, cells were treated with 25 U/ml of TNFα for 18 h in DMEM with 1% FCS. Bend.3 were rinsed with PBS and fixed with 4% PFA for 10 minutes. Cells were washed with PBS incubated with blocking buffer for 1 h at RT° C. Primary antibodies were diluted in 1% Bovine Serum Albumin (BSA) PBS. Cells were incubated overnight at 4° C. with 50 μg/ml anti-VCAM (hybridoma MK2.7), 10 μg/ml anti-ICAM (hybridoma YN1.7), 0.5 μg/ml anti-CD31 (370700, Invitrogen), 5 μg/ml anti-E-selectin (hybridoma RME-1) and 1.5 μg/ml anti-P-selectin (CD62P, BD Pharmigen). The day after, cells were rinsed 2 times with PBS and then incubated with 7.5 μg/ml biotinylated secondary antibody (rabbit anti-rat, T0226, VectorLab) for 1 h at RT° C. Cells were rinsed 2 times with PBS and incubated with 25 μg/ml Avidin-TexasRed (A2006, Vector Lab) for 1 h at RT° C. in the dark. After rinsing in PBS, cells were incubated with 1 μg/ml Dapi (D9542, Sigma-Aldrich, St. Louis, Mo.), for 5 minutes in the dark. Finally, glass coverslip was transferred on glass slides and mounted with Dako medium (S3023, DAKO NORTH AMERICA, Carpinteria, Calif.). Glass slides were kept at 4° C. in the dark and acquired by LEICA fluorescence microscopy (DM6000B, LEICA, Germany).
We analyzed the expression of VCAM-1, ICAM-1, E- and P-selectin on Bend.3 after Aβ1-42 oligomers stimulation. TNF-α stimulation, which is well known to up-regulate the adhesion molecules expression, was used as positive control. We evaluated a dose-response effect of Aβ1-42 soluble oligomers on Bend.3 cells, ranging from 1 to 10 μM after 6 or 18 hours of treatment. After 18 h of treatment with 10 μM Aβ we observed a significant up-regulation of […] compared to non-stimulated control cells (CTRL) (Table 2). […] ICAM-1 was constitutively expressed at low levels on endothelial cells (indicated by +/−, some vessels were positive for ICAM-1, Table 2), but 18 h treatment with Aβ1-42 led to an increase of ICAM-1 expression (indicated by +, Table 2).

In the case of `C=CC(=O)N1CCC[C@@H](n2nc(-c3ccc(Oc4ccccc4)cc3)c3c(N)ncnc32)C1` [Ibrutinib, ibrutinib], in the assay with human primary PMNs (inhibitor 100 μM), the “Adherent hPMNs to ICAM-1, n.t. (resting), Mean” value (“Adherent hPMNs … (resting), Mean” for short) is 21.9; the “Adherent hPMNs to ICAM-1, fMLP, Mean” value was 80.0; the “Adherent hPMNs to ICAM-1, Aβ oligo, Mean” value is 78.0.
Consider `NC(=O)c1cccc(-c2cc(Nc3ccc(OC(F)(F)F)cc3)ncn2)c1` [GNF-2], for which, in the assay with human primary PMNs (inhibitor 100 μM), the “Adherent hPMNs … (resting), Mean” value is reported as 25.2; the “Adherent hPMNs to ICAM-1, fMLP, Mean” value came out at 144.2; the “Adherent hPMNs to ICAM-1, Aβ oligo, Mean” value amounted to 115.5. Further, the “Blockade of Aβ-induced adhesion of human neutrophils” value (from here on “Blockade”) in the assay with human primary PMNs was “can block”.
On to “Fib Abeta: fibrillary form of Aβ1-42 peptide”, for which, in the assay on neutrophils, the “Rapid adhesion to Fibrinogen” value stood at 171 ± 21.8 bound cells in 0.2 mm^2 and the “Rapid adhesion to ICAM-1” value amounted to 457.3 ± 45.54 bound cells in 0.2 mm^2.
`COc1cc2ncnc(Nc3ccc(O)c(Br)c3)c2cc1OC` [WHI-P154]: in the assay with human primary PMNs (inhibitor 100 μM), the “Adherent hPMNs … (resting), Mean” value is 23.5; the “Adherent hPMNs to ICAM-1, fMLP, Mean” value is given as 207.8; the “Adherent hPMNs to ICAM-1, Aβ oligo, Mean” value was 218.8. Moreover, the “Blockade” value in the assay with human primary PMNs was “can block”.
Consider `N#C/C(=C/c1ccc(O)c(O)c1)C(=O)NCc1ccccc1` [AG490], for which, in the assay on human primary PMNs (inhibitor 200 μM), the “Adherent hPMNs … (resting), Mean” value stood at 23.2; the “Adherent hPMNs to ICAM-1, fMLP, Mean” value was 274.5; the “Adherent hPMNs to ICAM-1, Aβ oligo, Mean” value came to 258.6. Besides, the “Blockade” value with human primary PMNs is listed as “can block”.
With `N#CC[C@H](C1CCCC1)n1cc(-c2ncnc3[nH]ccc23)cn1` [Ruxolitinib, ruxolitinib], in the assay on human primary PMNs (inhibitor 100 μM), the “Adherent hPMNs … (resting), Mean” value came out at 17.0; the “Adherent hPMNs to ICAM-1, fMLP, Mean” value was 243.8; the “Adherent hPMNs to ICAM-1, Aβ oligo, Mean” value amounted to 244.5.
With bocMLF, in the assay on human neutrophils [1] (buffer (control), no stimulus), the “Neutrophil adhesion to ICAM-1 after inhibitor pre-treatment” value is listed as 17.3 ± 6.6 bound cells in 0.2 mm^2. For the same compound, in the assay on human neutrophils [1] (stimulated 2 minutes with oligomeric Aβ), the “Neutrophil adhesion to ICAM-1 after inhibitor pre-treatment” value is recorded as 74.8 ± 25.5 bound cells in 0.2 mm^2. Also, in the assay with human neutrophils [1] (stimulated with 0.1 μM fMLP), the “Neutrophil adhesion to ICAM-1 after inhibitor pre-treatment” value was determined as 69 ± 26.5 bound cells in 0.2 mm^2. In the assay with human primary PMNs (inhibitor 100 μM), the “Adherent hPMNs … (resting), Mean” value was found to be 20.1; the “Adherent hPMNs to ICAM-1, fMLP, Mean” value is 55.0; the “Adherent hPMNs to ICAM-1, Aβ oligo, Mean” value is on record as 81.8. In addition, the “Blockade” value with human primary PMNs is listed as “inhibits”.
With `Cc1nc(Nc2ncc(C(=O)Nc3c(C)cccc3Cl)s2)cc(N2CCN(CCO)CC2)n1` [Dasatinib, dasatinib], in the assay on human primary PMNs (inhibitor 20 μM), the “Adherent hPMNs … (resting), Mean” value is recorded as 24.9; the “Adherent hPMNs to ICAM-1, fMLP, Mean” value worked out at 230.8; the “Adherent hPMNs to ICAM-1, Aβ oligo, Mean” value turned out to be 227.5.
Turning to `c1ccc2c(c1)[I+]c1ccccc1-2` [DPI], in the assay with human neutrophils [2], the “Effect on fMLP and Aβ1-42 ROS responses” value is on record as “suppressed”.
Take `COc1cc(Nc2c(C#N)cnc3cc(OCCCN4CCN(C)CC4)c(OC)cc23)c(Cl)cc1Cl` [Bosutinib, bosutinib]: in the assay on human primary PMNs (inhibitor 100 μM), the “Adherent hPMNs … (resting), Mean” value stood at 19.3; the “Adherent hPMNs to ICAM-1, fMLP, Mean” value was 98.2; the “Adherent hPMNs to ICAM-1, Aβ oligo, Mean” value turned out to be 95.1.
In the case of `Cc1ccc(NC(=O)c2ccc(CN3CCN(C)CC3)cc2)cc1Nc1nccc(-c2cccnc2)n1` [Imatinib, imatinib], in the assay with human primary PMNs (inhibitor 100 μM), the “Adherent hPMNs … (resting), Mean” value is 23.5; the “Adherent hPMNs to ICAM-1, fMLP, Mean” value amounted to 124.9; the “Adherent hPMNs to ICAM-1, Aβ oligo, Mean” value was 109.3. In addition, the “Blockade” value with human primary PMNs was “can block”.
`Oc1cc(O)cc(/C=C/c2ccc(O)c(O)c2)c1` [Piceatannol, piceatannol]: in the assay with human primary PMNs (inhibitor 50 μM), the “Adherent hPMNs … (resting), Mean” value is 21.0; the “Adherent hPMNs to ICAM-1, fMLP, Mean” value was 218.7; the “Adherent hPMNs to ICAM-1, Aβ oligo, Mean” value turned out to be 276.1.
`Cc1cnc(Nc2ccc(OCCN3CCCC3)cc2)nc1Nc1cccc(S(=O)(=O)NC(C)(C)C)c1` [TG101348]: in the assay on human primary PMNs (inhibitor 100 μM), the “Adherent hPMNs … (resting), Mean” value is 20.1; the “Adherent hPMNs to ICAM-1, fMLP, Mean” value came out at 147.2; the “Adherent hPMNs to ICAM-1, Aβ oligo, Mean” value is recorded as 134.8. Besides, in the assay with human primary PMNs, the “Blockade” value is on record as “can block”.
On to TNF-a, for which the “ROS generation (chemiluminescence)” value with mouse neutrophils (1 min) came to 38 ± 20 counts per second. Moreover, in the assay with mouse neutrophils (2 min), the “ROS generation (chemiluminescence)” value is 62 ± 21 counts per second. In addition, in the assay with mouse neutrophils (3 min), the “ROS generation (chemiluminescence)” value was 102 ± 28 counts per second. Besides, in the assay with mouse neutrophils (4 min), the “ROS generation (chemiluminescence)” value came to 136 ± 26 counts per second. In addition, in the assay with mouse neutrophils (5 min), the “ROS generation (chemiluminescence)” value is given as 187 ± 14 counts per second. Further, in assay [3], the “CD31 expression (endothelial cell marker)” value is recorded as “+”, the E-sel expression result was “+”, the ICAM-1 expression result is on record as “+” and the P-sel expression entry was “+”. Besides, the VCAM-1 expression result in assay [3] was “+”.
Take `C[C@@H]1CCN(C(=O)CC#N)C[C@@H]1N(C)c1ncnc2[nH]ccc12` [CP-690550]: in the assay with human primary PMNs (inhibitor 200 μM), the “Adherent hPMNs … (resting), Mean” value came to 22.1; the “Adherent hPMNs to ICAM-1, fMLP, Mean” value amounted to 209.6; the “Adherent hPMNs to ICAM-1, Aβ oligo, Mean” value is 172.4. Besides, in the assay with human primary PMNs, the “Blockade” value is given as “can block”.
